Assay results reported in patent publication US8173700B2, “Salts of substituted allophanates and their use in drugs” (Gruenenthal GmbH, priority 2005, dated 2012).

Assays:
[1] = target: T1, hVR1 (Homo sapiens, UniProt Q8NER1); assay: Functional investigation at the vanilloid receptor (VR1), FLIPR Ca2+ influx assay, Method II, hVR1; type: cell-based; conditions: for IC50: suppression of capsaicin-induced Ca2+ influx; for inhibition at 10 µM: test substance 10 μM, CHO K1 cells transfected with VR1, inhibition of Ca2+ influx after 100 nM capsaicin, compared to maximum inhibition with 10 μM capsazepin
T1 construct: expressed in transfected cells; host or cells: CHO K1 cells (ECACC)
T1 sequence (Q8NER1 whole entry): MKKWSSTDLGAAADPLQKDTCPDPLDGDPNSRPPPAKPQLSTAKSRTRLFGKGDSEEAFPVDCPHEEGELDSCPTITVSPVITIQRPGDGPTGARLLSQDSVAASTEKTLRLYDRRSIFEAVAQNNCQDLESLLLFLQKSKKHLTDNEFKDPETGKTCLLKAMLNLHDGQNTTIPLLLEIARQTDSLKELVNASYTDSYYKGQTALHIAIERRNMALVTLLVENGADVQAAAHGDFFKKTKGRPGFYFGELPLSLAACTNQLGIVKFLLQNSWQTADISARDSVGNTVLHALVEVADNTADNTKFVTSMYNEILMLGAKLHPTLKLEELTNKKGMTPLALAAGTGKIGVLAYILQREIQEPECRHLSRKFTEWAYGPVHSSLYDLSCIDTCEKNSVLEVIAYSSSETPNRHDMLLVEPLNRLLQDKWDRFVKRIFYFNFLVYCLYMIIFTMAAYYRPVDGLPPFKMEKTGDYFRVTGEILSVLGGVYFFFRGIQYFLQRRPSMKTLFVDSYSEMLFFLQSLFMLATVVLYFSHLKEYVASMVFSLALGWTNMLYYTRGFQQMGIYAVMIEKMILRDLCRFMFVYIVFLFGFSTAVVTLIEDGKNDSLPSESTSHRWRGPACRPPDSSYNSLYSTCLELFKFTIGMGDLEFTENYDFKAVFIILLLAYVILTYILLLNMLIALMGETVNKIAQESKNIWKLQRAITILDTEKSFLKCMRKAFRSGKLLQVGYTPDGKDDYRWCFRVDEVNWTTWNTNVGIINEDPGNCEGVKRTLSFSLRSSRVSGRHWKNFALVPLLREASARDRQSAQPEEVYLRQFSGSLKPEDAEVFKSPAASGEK
Description: (§1) The agonistic and/or antagonistic effects of the test substances on the vanilloid receptor (VR1) can be determined with the following assay. According to this assay the Ca^2+ influx through the channel is quantified by means of a Ca^2+-sensitive dye (Type Fluo-4, Molecular Probes, Europe BV, Leyden, The Netherlands) in the Fluorescent Imaging Plate Reader (FLIPR, Molecular Devices, Sunnyvale, USA).
(§2) Chinese hamster ovary cells (CHO K1-cells, European Collection of Cell Cultures (ECACC) Great Britain) are stably transfected with the VR1 gene. For functional studies, these cells are plated on poly-D-lysine-coated, black 96-well plates with clear bottom (BD Biosciences, Heidelberg, Germany) at a density of 25 000 cells/well. The cells are incubated overnight at 37° C. and 5% CO2 in a culture medium (Nutrient Mixture Ham's F12, 10 vol. % FCS (fetal calf serum), 18 μg/ml L-proline). On the next day the cells are incubated for 30 minutes at 37° C. with Fluo-4 (Fluo-4 2 μM, Pluronic F127 0.01 vol. %, Molecular Probes) in HBSS (Hank's buffered saline solution), (Gibco Invitrogen GmbH, Karlsruhe, Germany). Then the plates are washed 3 times with HBSS buffer and, after further incubation of 15 minutes at room temperature, they are used for Ca^2+ measurement in the FLIPR. The Ca^2+-dependent fluorescence is measured before and after adding the test substances (wavelength λex=^488 nm, λem=540 nm). Quantification is based on measurement of the maximum fluorescence intensity (FC, fluorescence counts) over time.
(§3) The FLIPR protocol comprises 2 additions of the substance. First the test substances (10 μM) are pipetted onto the cells and the Ca^2+ influx is compared with the control (capsaicin 10 μM) (% activation relative to the Ca^2+ signal after adding 10 μM capsaicin). After incubation for 5 minutes, 100 nM capsaicin is applied and the influx of Ca^2+ is determined again.
(§4) Desensitizing agonists and antagonists led to suppression of Ca^2+ influx. The % inhibition is calculated compared to the maximum inhibition attainable with 10 μM capsazepin.

[2] = target: T2, rVR1 (Rattus norvegicus, UniProt O35433); assay: Functional investigation at the vanilloid receptor (VR1), FLIPR Ca2+ influx assay, Method II, rVR1; type: cell-based; conditions: for IC50: suppression of capsaicin-induced Ca2+ influx; for rVR1 10 μM Stimulation / inhibition at 10 µM: test substance 10 μM; for rVR1 10 μM Stimulation: % activation relative to the Ca2+ signal after adding 10 μM capsaicin; for inhibition at 10 µM: inhibition of Ca2+ influx after 100 nM capsaicin, compared to maximum inhibition with 10 μM capsazepin
T2 construct: expressed in transfected cells; host or cells: CHO K1 cells (ECACC)
T2 sequence (O35433 whole entry): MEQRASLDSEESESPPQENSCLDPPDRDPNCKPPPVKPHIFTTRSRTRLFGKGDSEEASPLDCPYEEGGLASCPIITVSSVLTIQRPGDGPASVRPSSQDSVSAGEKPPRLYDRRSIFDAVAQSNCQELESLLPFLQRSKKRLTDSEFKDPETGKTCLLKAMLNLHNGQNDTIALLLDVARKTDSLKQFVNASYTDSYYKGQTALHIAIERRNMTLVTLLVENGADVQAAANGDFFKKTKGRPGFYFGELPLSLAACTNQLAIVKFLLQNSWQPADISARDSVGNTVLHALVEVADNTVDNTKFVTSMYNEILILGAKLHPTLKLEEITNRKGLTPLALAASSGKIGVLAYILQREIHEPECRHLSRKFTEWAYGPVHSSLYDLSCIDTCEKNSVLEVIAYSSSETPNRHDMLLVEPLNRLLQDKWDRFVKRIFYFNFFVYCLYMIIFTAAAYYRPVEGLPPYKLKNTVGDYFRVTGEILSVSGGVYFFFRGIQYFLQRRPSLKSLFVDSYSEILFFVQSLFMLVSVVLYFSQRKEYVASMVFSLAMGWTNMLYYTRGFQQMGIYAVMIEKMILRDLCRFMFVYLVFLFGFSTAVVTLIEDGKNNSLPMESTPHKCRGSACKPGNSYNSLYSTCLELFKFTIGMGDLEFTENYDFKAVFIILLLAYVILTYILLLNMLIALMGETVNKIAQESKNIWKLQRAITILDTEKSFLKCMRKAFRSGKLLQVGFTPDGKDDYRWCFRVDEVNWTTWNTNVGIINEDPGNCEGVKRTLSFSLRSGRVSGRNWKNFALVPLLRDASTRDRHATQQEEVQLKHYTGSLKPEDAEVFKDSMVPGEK
Description: as §1, §2, §3, §4

SMILES | IC50 [1] [µM] | inhibition at 10 µM [1] [%] | IC50 [2] [µM] | rVR1 10 μM Stimulation [2] [%] | inhibition at 10 µM [2] [%]
CCCCCCCCCCCCCCCCOC[C@@H]1CC[C@H](COC(=O)NC(=O)NCC[N+](C)(C)C)O1 (relative stereo) [compound 13, 4-(Trimethylamino-1-ethyl)allophanic acid (cis-5-hexadecyloxymethyltetrahydrofuran-2-yl)methyl ester iodide] | 1.1 | 80.8 | 1.3 | 0.36 | 92.1
CCCCCCCCCCCCOC(=O)NC(=O)NCC[N+](C)(C)C [compound 1, 4-(Trimethylamino-1-ethyl)allophanic acid dodecyl ester iodide] | 2.43 | 95.4 | 2.1 | 0.55 | 103
CCCCCCCCCCCCCCCCOC(=O)NC(=O)NCC[N+]1(C)CCCC1 [compound 2, 4-(Pyrrolidinium-1-ethyl)allophanic acid hexadecyl ester iodide] | 0.92 | 88.9 | 1.23 | −0.02 | 87.1
CCCCCCCCCCCCCCCCOC(=O)NC(=O)NCCC[N+](C)(C)C [compound 3, 4-(Trimethylamino-1-propyl)allophanic acid hexadecyl ester iodide] | 4.27 | 56.9 | 1.27 | −0.73 | 94.4
CCCCCCCCCCCCCCCCOCC(COC(=O)NC(=O)NCC[N+](C)(C)C)OC (centres unmarked) [compound 14, 4-(Trimethylamino-1-ethyl)allophanic acid 3-hexadecyloxy-2-methoxypropan-1-yl ester iodide] | 2.4 | 93.1 | 1.15 | 0.09 | 95.5
CCCCCCCCCCCCCCCCOC(=O)NC(=O)NCC[N+](C)(C)C [compound 15, 4-(Trimethylamino-1-ethyl)allophanic acid hexadecyl ester iodide] | 3.45 | 101 | 2.95 | −1.01 | 109
CCCCCCCCCCCCCCCCOCC1(COC(=O)NC(=O)NCC[N+](C)(C)C)CCCO1 (centres unmarked) [compound 16, 4-(Trimethylamino-1-ethyl)allophanic acid (2-hexadecyloxymethyltetrahydrofuran-2-yl)methyl ester iodide] | 1.7 | 68.6 | 2.9 | 0.58 | 99.3
